Data set [1] can be described thus: Evaluated for cytotoxicity using P388/VMDRC.04 cells (a subline of P388 murine leukemia cells expressing human recombinant human P-glycoprotein) in the absence of 10 nM vincristine.
Assay in data set [2]: as above
This is another data set of the same source.

Data set [3] in a line: Multidrug-resistant reversal activity using P388/VMDRC.04 cells (a subline of P388 murine leukemia cells expressing human recombinant human P-glycoprotein) in the presence of 10 nM vincristine.

“And” between values parts separate entries of the source, which are not always exact repeats. Equal entries are not always repeated.

Turning to `CC(C)[C@@H]1OC(=O)[C@@H](C)COC(=O)C[C@@H](O)[C@H](Cc2ccccc2)N(C)C1=O`, in data set [1], the IC50 is 21.9 µM.

Regarding `CCCCCCC[C@@H]1CC(=O)O[C@@H](C(C)C)C(=O)N(C)[C@@H](Cc2ccccc2)[C@H](OCOC)CC(=O)O1`, the IC50 is 6 µM in data set [1] and 34.4 µM in data set [2].

Consider `CCCCCCC[C@H]1OC(=O)C[C@@H](OCOC)[C@H](Cc2ccccc2)N(C)C(=O)[C@H](C(C)C)OC(=O)[C@H]1C`, for which the 50% inhibitory concentration (IC50) in data set [1] was 6.1 µM.

`CCCCCCC[C@H]1OC(=O)C[C@@H](OCOC)[C@H](Cc2ccccc2)N(C)C(=O)COC(=O)[C@H]1C`: the half-maximal inhibitory concentration (IC50) in data set [1] worked out at 2.3 µM; in data set [2], 15.1 µM.

As for `CCCCCCC[C@@H](O)[C@H](C)C(=O)O[C@H](C(=O)OC)C(C)C`, the values for the half-inhibitory concentration (IC50) in data set [2] and in data set [3] were > 83 µM and 16 µM, respectively.

Consider `COCO[C@@H]1CC(=O)O[C@H](C)[C@H](C)C(=O)O[C@@H](C(C)C)C(=O)N(C)[C@H]1Cc1ccccc1`, for which the results for the 50% inhibitory concentration (IC50) in data set [1] and in data set [2] were 7.5 µM and > 75 µM, respectively.

Consider `CCCCCCC[C@H]1OC(=O)CC[C@H](Cc2ccccc2)N(C)C(=O)[C@H](C(C)C)OC(=O)[C@H]1C`, for which the IC50 in data set [1] turned out to be 6 µM; in data set [2], 33.7 µM.

Regarding `CCCCCCC[C@H]1OC(=O)C[C@@H](OCOC)[C@H](Cc2ccccc2)N(C)C(=O)[C@H](C)OC(=O)[C@H]1C`, the concentration for half-maximal inhibition (IC50) in data set [2] was 19.3 µM; in data set [3], 5.9 µM.

On to `CCCCCCC[C@H]1OC(=O)C[C@H](OCOC)[C@H](Cc2ccccc2)N(C)C(=O)C(C)(C)OC(=O)[C@H]1C`, for which the IC50 in data set [2] turned out to be 20 µM; in data set [3], 5.6 µM.

For `CCCCCCC[C@H]1OC(=O)C[C@H](O)[C@H](Cc2ccccc2)N(C)C(=O)[C@H](C(C)C)OC(=O)[C@H]1C`, the half-maximal inhibitory concentration (IC50) in data set [2] is 42.2 µM; in data set [3], 5.7 µM.

Regarding `CCCC[C@H]1OC(=O)C[C@H](O)[C@H](Cc2ccccc2)N(C)C(=O)COC(=O)[C@H]1C`, the figures for the IC50 in data set [2] and in data set [3] were > 80 µM and 18.1 µM, respectively.

Turning to `CCCCCCC[C@@H]1CC(=O)O[C@@H](C(C)C)C(=O)N(C)[C@@H](Cc2ccccc2)[C@H](O)CC(=O)O1`, the half-maximal inhibitory concentration (IC50) came to 6.2 µM in data set [1] and 24 µM in data set [2].

Consider `COCO[C@@H]1CC(=O)OC[C@H](C)C(=O)O[C@@H](C(C)C)C(=O)N(C)[C@H]1Cc1ccccc1`, for which the IC50 was 10.4 µM in data set [1] and > 100 µM in data set [2].

Regarding `COCO[C@H](CC(=O)OC)[C@H](Cc1ccccc1)N(C)C(=O)OCc1ccccc1`, the IC50 was > 86 µM in data set [2] and 14.9 µM in data set [3].

Regarding `CCCCCCC[C@H]1OC(=O)C[C@H](O)[C@H](Cc2ccccc2)N(C)C(=O)C(C)(C)OC(=O)[C@H]1C`, the values for the half-inhibitory concentration (IC50) in data set [2] and in data set [3] were 28.4 µM and 4.3 µM, respectively.

With `CC(C)[C@@H]1OC(=O)[C@@H](C)[C@@H](C)OC(=O)C[C@@H](O)[C@H](Cc2ccccc2)N(C)C1=O`, the IC50 in data set [1] was 15 µM; in data set [2], > 100 µM.

Turning to `CCCC[C@H]1OC(=O)C[C@H](OCOC)[C@H](Cc2ccccc2)N(C)C(=O)COC(=O)[C@H]1C`, the IC50 in data set [1] worked out at 11.7 µM.

For the molecule `CCCCCCC[C@H]1OC(=O)C[C@H](OCOC)[C@H](Cc2ccccc2)N(C)C(=O)[C@H](C(C)C)OC(=O)[C@H]1C`, the 50% inhibitory concentration (IC50) in data set [2] is 41.5 µM; in data set [3], 5.5 µM and 5.4 µM.

Consider `CCCCCCC[C@H]1OC(=O)C[C@@H](O)[C@H](Cc2ccccc2)N(C)C(=O)COC(=O)[C@H]1C`, for which the values for the half-maximal inhibitory concentration (IC50) in data set [1] and in data set [2] were 5.8 µM and 22.5 µM, respectively.

Consider `CCCCCCC[C@H]1OC(=O)C[C@@H](O)[C@H](Cc2ccccc2)N(C)C(=O)[C@H](C)OC(=O)[C@H]1C`, for which the 50% inhibitory concentration (IC50) came to 27.1 µM in data set [2] and 6.2 µM in data set [3].

As for `COCO[C@H]1CC(=O)O[C@H](C)[C@H](C)C(=O)OCC(=O)N(C)[C@H]1Cc1ccccc1`, the figures for the IC50 in data set [2] and in data set [3] were > 100 µM and 42.7 µM, respectively.

For the molecule `CCCCCCC[C@H]1OC(=O)C[C@@H](O)[C@H](Cc2ccccc2)N(C)C(=O)[C@H](C(C)C)OC(=O)[C@H]1C` [HAPALOSIN], the half-inhibitory concentration (IC50) in data set [2] amounted to 14.8 µM; in data set [3] it was 4.8 µM.

Consider `COC(=O)C[C@@H](O)[C@H](Cc1ccccc1)N(C)C(=O)OCc1ccccc1`, for which the figures for the IC50 in data set [1] and in data set [2] were 17.1 µM and > 89 µM, respectively.

As for `C[C@@H]1C(=O)OCC(=O)N(C)[C@@H](Cc2ccccc2)[C@@H](O)CC(=O)O[C@@H]1C`, the IC50 in data set [2] and in data set [3] was > 100 µM throughout.
